From ChEMBL document CHEMBL5352387, “Synthesis and biological evaluation of tyrosine derivatives as peripheral 5HT2A receptor antagonists for nonalcoholic fatty liver disease” (Eur J Med Chem, 2022)
Values belong to the compound of their own block, whether it stands above or below them. Active and inactive are the calls of the source. The rule behind the calls is not given here.

Assays:
[1] = target: T1, 5-hydroxytryptamine receptor 2A (Homo sapiens, UniProt P28223); experiment: Inhibition of 5HT2A receptor (unknown origin) expressed in HEK293 cells at 1 uM by FLIPR Calcium 6 dye based assay relative to control; type: functional, cell-based
[2] = target: T1, 5-hydroxytryptamine receptor 2A; experiment: Inhibition of 5HT2A receptor (unknown origin) expressed in HEK293 cells by FLIPR Calcium 6 dye based assay; type: functional, cell-based
[3] = Drug concentration in plasma of ICR mouse at 5 mg/kg, iv measured at 1 hr; type: ADME, organism-based
[4] = Drug concentration in brain of ICR mouse at 5 mg/kg, iv measured at 1 hr; type: ADME, organism-based; conditions: read-out: Ct
[5] = Stability in mouse liver microsomes assessed as parent compound remaining measured after 30 mins; type: ADME, Microsome; conditions: read-out: Stability
[6] = Stability in rat liver microsomes assessed as parent compound remaining measured after 30 mins; type: ADME, Microsome; conditions: read-out: Stability
[7] = Stability in human liver microsomes assessed as parent compound remaining measured after 30 mins; type: ADME, Microsome; conditions: read-out: Stability
Cytochrome P450 1A2 = target: T2, Cytochrome P450 1A2 (Homo sapiens, UniProt P05177); experiment: Inhibition of CYP1A2 (unknown origin) relative to control; type: ADME
T2 sequence (P05177 whole entry): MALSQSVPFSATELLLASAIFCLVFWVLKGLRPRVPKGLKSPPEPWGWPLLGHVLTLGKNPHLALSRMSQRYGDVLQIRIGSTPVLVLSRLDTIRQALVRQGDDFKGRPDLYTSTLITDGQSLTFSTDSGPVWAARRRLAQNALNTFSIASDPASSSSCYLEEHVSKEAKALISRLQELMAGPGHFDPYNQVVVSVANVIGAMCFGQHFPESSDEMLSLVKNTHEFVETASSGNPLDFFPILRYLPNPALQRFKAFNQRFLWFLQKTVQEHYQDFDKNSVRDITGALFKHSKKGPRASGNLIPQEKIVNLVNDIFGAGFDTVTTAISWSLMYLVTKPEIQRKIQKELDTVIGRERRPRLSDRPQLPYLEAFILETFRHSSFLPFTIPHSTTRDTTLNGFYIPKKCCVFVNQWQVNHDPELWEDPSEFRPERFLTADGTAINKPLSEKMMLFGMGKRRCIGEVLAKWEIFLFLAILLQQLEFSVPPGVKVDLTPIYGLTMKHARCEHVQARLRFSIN

Cytochrome P450 2C9 = Cytochrome P450 2C9 (Homo sapiens, UniProt P11712); experiment: Inhibition of CYP2C9 (unknown origin) relative to control; type: ADME
Cytochrome P450 2C19 = Cytochrome P450 2C19 (Homo sapiens, UniProt P33261); experiment: Inhibition of CYP2C19 (unknown origin) relative to control; type: ADME
Cytochrome P450 2D6 = Cytochrome P450 2D6 (Homo sapiens, UniProt P10635); experiment: Inhibition of CYP2D6 (unknown origin) relative to control; type: ADME
Cytochrome P450 3A4 = Cytochrome P450 3A4 (Homo sapiens, UniProt P08684); experiment: Inhibition of CYP3A4 (unknown origin) relative to control; type: ADME
hERG = hERG (Homo sapiens, UniProt Q12809); experiment: Inhibition of hERG at 10 uM relative to control; type: toxicity
[8] = target: T3, 5-hydroxytryptamine receptor 1A (Homo sapiens) (UniProt P08908); experiment: Inhibition of 5HT1A receptor (unknown origin) at 1 uM relative to control
T3 sequence (whole entry): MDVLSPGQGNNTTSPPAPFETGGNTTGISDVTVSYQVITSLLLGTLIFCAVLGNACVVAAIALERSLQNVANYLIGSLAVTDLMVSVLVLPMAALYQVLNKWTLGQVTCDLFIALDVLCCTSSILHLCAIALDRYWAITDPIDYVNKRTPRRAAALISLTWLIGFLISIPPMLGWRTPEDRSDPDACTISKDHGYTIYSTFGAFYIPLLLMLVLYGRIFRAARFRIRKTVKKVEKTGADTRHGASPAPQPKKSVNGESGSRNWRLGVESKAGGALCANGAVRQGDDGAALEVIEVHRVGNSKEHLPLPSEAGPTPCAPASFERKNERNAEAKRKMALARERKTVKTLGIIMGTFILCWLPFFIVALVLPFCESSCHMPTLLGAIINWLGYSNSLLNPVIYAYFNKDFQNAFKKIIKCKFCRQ

[9] = target: T4, 5-hydroxytryptamine receptor 2C (Homo sapiens) (UniProt P28335); experiment: Inhibition of 5HT2C receptor (unknown origin) at 1 uM relative to control
T4 sequence (whole entry): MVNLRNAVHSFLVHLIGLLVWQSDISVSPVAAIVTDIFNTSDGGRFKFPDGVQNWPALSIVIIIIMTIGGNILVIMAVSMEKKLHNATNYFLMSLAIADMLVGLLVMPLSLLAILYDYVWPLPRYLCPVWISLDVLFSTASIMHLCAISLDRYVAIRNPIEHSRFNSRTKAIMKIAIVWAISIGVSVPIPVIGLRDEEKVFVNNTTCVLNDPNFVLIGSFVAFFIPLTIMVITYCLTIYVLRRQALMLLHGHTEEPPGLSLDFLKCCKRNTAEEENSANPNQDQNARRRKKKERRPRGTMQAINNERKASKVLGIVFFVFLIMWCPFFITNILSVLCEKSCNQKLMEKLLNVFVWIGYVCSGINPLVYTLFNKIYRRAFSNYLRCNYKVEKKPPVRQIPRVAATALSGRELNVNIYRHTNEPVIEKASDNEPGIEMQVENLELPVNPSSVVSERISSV

[10] = target: Serotonin 3 (5-HT3) receptor (Homo sapiens) (UniProt P46098+A5X5Y0+O95264+Q70Z44+Q8WXA8); experiment: Inhibition of 5HT3 receptor (unknown origin) at 1 uM relative to control; type: protein-complex assay
[11] = target: 5-hydroxytryptamine receptor 4 (Homo sapiens) (UniProt Q13639); experiment: Inhibition of 5HT4E receptor (unknown origin) at 1 uM relative to control
[12] = target: 5-hydroxytryptamine receptor 5A (Homo sapiens) (UniProt P47898); experiment: Inhibition of 5HT5A receptor (unknown origin) at 1 uM relative to control
[13] = target: 5-hydroxytryptamine receptor 6 (Homo sapiens) (UniProt P50406); experiment: Inhibition of 5HT6 receptor (unknown origin) at 1 uM relative to control
[14] = target: 5-hydroxytryptamine receptor 7 (Homo sapiens) (UniProt P34969); experiment: Inhibition of 5HT7 receptor (unknown origin) at 1 uM relative to control
Mus musculus [15] = experiment: Reduction in hepatic steatosis in high fat diet-induced NAFLD C57BL6/J mouse model at 1 mg/kg, ip measured after 8 weeks; type: functional, organism-based
Mus musculus [16] = experiment: Reduction in hepatic steatosis in high fat diet-induced NAFLD C57BL6/J mouse model assessed as reduction in lobular inflammation at 1 mg/kg, ip measured after 8 weeks by H and E staining analysis; type: functional, organism-based
Mus musculus [17] = experiment: Reduction in hepatic steatosis in high fat diet-induced NAFLD C57BL6/J mouse model assessed as reduction in hepatic triglyceride level at 1 mg/kg, ip measured after 8 weeks by colorimetric assay; type: functional, organism-based
Mus musculus [18] = experiment: Reduction in hepatic steatosis in high fat diet-induced NAFLD C57BL6/J mouse model assessed as reduction in serum ALT level at 1 mg/kg, ip measured after 8 weeks; type: functional, organism-based
Mus musculus [19] = experiment: Reduction in hepatic steatosis in high fat diet-induced NAFLD C57BL6/J mouse model assessed as reduction in serum AST level at 1 mg/kg, ip measured after 8 weeks; type: functional, organism-based
Mus musculus [20] = experiment: Reduction in hepatic steatosis in high fat diet-induced NAFLD C57BL6/J mouse model assessed as reduction in serum cholesterol level at 1 mg/kg, ip measured after 8 weeks; type: functional, organism-based
Mus musculus [21] = experiment: Reduction in hepatic steatosis in high fat diet-induced NAFLD C57BL6/J mouse model assessed as body weight gain at 1 mg/kg, ip measured after 8 weeks; type: functional, organism-based
Mus musculus [22] = experiment: Reduction in hepatic steatosis in high fat diet-induced NAFLD C57BL6/J mouse model assessed as reduction in fat body mass at 1 mg/kg, ip measured after 8 weeks; type: functional, organism-based
Mus musculus [23] = experiment: Reduction in hepatic steatosis in high fat diet-induced NAFLD C57BL6/J mouse model assessed as increase in lean body mass at 1 mg/kg, ip measured after 8 weeks; type: functional, organism-based
Mus musculus [24] = experiment: Reduction in hepatic steatosis in high fat diet-induced NAFLD C57BL6/J mouse model assessed as improved glucose tolerance at 1 mg/kg, ip measured after 8 weeks by glucometer analysis; type: functional, organism-based
Mus musculus [25] = experiment: Reduction in hepatic steatosis in high fat diet-induced NAFLD C57BL6/J mouse model assessed as reduction in adipose tissue inflammation at 1 mg/kg, ip measured after 8 weeks by H and E staining based analysis; type: functional, organism-based
Mus musculus [26] = experiment: Reduction in hepatic steatosis in high fat diet-induced NAFLD C57BL6/J mouse model assessed as decrease in size of adipocytes in epididymis white adipose tissue at 1 mg/kg, ip measured after 8 weeks by H and E staining based analysis; type: functional, organism-based
Mus musculus [27] = experiment: Reduction in hepatic steatosis in high fat diet-induced NAFLD C57BL6/J mouse model assessed as decrease in size of adipocytes in inguinal white adipose tissue at 1 mg/kg, ip measured after 8 weeks by H and E staining based analysis; type: functional, organism-based
Mus musculus [28] = experiment: Reduction in hepatic steatosis in high fat diet-induced NAFLD C57BL6/J mouse model assessed as decrease in size of lipid droplet in brown adipose tissue at 1 mg/kg, ip measured after 8 weeks by H and E staining based analysis; type: functional, organism-based
Mus musculus [29] = experiment: Reduction in hepatic steatosis in high fat diet-induced NAFLD C57BL6/J mouse model assessed as increase in multilocular adipocytes at 1 mg/kg, ip measured after 8 weeks by H and E staining based analysis; type: functional, organism-based

T1 sequence (P28223 whole entry): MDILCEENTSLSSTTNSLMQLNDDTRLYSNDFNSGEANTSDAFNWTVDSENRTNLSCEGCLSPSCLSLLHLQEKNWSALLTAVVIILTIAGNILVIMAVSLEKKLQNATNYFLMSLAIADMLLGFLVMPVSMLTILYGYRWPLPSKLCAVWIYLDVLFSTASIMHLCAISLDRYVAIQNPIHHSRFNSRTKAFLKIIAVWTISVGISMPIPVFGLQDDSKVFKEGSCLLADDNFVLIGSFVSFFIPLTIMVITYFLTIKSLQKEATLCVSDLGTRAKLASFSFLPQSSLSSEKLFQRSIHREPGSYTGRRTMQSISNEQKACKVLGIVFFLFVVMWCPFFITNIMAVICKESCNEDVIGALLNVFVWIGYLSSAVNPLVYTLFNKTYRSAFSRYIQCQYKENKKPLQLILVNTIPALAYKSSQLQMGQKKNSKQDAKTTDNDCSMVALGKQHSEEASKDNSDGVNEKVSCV
Sequence of 5-hydroxytryptamine receptor 4 (Homo sapiens) (Q13639 whole entry): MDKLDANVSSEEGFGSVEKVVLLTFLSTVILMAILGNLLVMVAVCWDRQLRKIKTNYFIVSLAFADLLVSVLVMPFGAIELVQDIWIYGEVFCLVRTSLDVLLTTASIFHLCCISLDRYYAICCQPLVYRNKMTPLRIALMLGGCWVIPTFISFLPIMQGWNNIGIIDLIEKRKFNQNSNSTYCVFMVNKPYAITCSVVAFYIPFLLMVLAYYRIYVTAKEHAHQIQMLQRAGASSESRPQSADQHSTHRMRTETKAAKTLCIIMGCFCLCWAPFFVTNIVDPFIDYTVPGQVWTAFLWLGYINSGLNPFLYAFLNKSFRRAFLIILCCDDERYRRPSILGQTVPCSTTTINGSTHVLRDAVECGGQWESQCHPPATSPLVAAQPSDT
Sequence of Cytochrome P450 2C9 (P11712 whole entry): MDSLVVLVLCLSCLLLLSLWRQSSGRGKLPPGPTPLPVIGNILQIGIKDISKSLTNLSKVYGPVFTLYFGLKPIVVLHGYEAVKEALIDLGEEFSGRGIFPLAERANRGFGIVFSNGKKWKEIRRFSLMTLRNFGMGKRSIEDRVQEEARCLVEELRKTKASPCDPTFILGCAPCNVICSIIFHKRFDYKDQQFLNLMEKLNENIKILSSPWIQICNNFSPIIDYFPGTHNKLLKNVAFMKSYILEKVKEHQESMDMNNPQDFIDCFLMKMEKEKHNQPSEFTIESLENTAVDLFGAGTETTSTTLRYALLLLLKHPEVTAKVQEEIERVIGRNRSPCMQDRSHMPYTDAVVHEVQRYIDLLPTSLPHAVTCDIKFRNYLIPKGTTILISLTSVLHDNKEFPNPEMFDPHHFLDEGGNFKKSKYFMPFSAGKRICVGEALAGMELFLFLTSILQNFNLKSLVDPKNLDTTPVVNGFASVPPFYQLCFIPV
Sequence of 5-hydroxytryptamine receptor 5A (Homo sapiens) (P47898 whole entry): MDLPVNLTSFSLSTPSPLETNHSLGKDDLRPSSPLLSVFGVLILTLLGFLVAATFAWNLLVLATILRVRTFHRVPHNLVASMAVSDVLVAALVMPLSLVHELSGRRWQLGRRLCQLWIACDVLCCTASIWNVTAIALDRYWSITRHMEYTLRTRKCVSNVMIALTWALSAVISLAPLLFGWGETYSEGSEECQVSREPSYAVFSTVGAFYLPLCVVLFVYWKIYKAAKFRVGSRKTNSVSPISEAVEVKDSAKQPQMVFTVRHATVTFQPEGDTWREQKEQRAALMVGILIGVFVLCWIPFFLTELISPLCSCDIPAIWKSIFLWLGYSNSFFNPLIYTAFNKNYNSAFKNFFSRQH
Sequence of Cytochrome P450 3A4 (P08684 whole entry): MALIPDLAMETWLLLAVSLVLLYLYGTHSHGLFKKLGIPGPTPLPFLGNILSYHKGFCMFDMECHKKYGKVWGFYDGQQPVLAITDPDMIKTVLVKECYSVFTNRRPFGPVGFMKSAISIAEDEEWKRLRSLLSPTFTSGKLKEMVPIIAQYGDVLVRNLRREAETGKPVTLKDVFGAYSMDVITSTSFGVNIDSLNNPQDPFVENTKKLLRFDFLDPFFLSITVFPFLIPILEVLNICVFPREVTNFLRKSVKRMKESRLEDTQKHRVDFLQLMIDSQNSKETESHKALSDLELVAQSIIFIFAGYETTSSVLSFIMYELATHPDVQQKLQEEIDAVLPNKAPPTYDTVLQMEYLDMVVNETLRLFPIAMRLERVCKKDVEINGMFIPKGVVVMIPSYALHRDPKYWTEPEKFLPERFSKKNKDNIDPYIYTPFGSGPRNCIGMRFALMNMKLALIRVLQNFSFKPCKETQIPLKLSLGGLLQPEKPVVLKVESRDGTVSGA
Sequence of Cytochrome P450 2D6 (P10635 whole entry): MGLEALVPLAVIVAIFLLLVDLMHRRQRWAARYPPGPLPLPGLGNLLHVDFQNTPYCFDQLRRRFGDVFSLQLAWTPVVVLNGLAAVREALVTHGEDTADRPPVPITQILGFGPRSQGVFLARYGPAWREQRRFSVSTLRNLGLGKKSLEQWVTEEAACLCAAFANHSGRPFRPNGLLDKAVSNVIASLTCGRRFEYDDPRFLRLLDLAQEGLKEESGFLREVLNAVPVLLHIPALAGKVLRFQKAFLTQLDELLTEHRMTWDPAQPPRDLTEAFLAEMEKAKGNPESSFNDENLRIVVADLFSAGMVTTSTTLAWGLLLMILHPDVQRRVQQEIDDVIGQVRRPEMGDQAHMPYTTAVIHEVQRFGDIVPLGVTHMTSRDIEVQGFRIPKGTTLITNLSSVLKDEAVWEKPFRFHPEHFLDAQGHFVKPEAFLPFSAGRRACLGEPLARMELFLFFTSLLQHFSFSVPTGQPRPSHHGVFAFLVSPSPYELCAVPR
Sequence of hERG (Q12809 whole entry): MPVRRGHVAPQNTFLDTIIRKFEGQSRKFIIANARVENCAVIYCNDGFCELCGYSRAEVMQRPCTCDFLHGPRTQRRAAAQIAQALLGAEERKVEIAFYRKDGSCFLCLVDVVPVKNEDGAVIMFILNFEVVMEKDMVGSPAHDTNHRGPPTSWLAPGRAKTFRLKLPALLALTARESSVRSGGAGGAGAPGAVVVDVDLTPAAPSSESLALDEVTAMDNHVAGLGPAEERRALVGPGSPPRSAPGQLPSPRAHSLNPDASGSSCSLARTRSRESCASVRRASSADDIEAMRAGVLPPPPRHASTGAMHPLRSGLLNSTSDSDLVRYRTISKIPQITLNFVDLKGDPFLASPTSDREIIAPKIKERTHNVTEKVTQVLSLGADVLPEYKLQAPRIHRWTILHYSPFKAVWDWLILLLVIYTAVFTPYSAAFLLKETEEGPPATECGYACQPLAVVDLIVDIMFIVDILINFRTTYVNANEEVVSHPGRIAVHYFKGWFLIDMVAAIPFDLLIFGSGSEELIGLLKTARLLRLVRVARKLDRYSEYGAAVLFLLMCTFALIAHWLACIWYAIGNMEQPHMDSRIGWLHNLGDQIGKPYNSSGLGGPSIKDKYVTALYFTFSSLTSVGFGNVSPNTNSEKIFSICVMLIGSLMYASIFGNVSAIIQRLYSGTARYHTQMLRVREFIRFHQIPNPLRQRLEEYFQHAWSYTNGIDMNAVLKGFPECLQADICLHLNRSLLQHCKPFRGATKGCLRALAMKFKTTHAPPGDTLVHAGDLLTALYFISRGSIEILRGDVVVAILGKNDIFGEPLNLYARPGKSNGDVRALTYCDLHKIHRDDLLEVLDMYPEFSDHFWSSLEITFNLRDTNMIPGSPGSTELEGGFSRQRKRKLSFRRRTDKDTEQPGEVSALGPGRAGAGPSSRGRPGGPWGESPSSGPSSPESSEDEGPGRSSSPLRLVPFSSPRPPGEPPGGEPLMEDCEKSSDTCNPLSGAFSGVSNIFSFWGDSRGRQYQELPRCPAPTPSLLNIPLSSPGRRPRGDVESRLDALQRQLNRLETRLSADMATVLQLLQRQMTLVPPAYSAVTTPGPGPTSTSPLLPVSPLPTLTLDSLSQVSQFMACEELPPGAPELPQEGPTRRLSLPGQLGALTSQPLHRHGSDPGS
Sequence of 5-hydroxytryptamine receptor 6 (Homo sapiens) (P50406 whole entry): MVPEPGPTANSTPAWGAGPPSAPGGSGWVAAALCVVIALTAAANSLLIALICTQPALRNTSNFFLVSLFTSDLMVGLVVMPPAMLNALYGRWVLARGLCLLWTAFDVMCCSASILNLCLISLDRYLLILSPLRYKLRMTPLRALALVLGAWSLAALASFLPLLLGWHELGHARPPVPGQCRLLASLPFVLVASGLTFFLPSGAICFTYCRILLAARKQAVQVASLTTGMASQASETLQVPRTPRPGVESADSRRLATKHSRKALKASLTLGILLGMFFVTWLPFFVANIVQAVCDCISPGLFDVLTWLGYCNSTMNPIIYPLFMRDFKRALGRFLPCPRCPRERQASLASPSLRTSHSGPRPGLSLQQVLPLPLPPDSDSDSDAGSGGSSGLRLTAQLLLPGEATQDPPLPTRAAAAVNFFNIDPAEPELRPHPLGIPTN
Sequence of 5-hydroxytryptamine receptor 7 (Homo sapiens) (P34969 whole entry): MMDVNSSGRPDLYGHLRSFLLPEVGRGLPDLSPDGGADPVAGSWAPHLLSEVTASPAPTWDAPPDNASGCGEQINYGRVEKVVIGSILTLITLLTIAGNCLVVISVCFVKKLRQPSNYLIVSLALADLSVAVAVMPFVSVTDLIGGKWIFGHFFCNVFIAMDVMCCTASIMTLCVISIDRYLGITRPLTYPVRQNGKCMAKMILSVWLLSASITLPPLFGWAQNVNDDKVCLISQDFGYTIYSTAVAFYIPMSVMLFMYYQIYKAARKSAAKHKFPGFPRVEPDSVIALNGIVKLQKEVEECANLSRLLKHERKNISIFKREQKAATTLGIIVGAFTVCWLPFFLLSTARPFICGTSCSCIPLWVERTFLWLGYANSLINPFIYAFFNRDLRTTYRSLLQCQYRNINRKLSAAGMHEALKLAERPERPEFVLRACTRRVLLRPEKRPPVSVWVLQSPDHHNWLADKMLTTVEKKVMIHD

inhibition [1]: 91.4% | IC50 [2]: 3.6 nM
SMILES: N[C@@H](Cc1ccc(OCCCCN2CCC(c3noc4cc(F)ccc34)CC2)cc1)C(=O)O

inhibition [1]: 35.1%
SMILES: N[C@@H](Cc1ccc(OCCN2CCC(C(=O)c3ccc(F)cc3)CC2)cc1)C(=O)O

inhibition [1]: 73.9% | concentration at 1 h [3]: 165 ng/mL | concentration at 1 h [4]: < 7.8 ng/mL
SMILES: Cl.Cl.N[C@@H](Cc1ccc(OCCN2CCN(c3nsc4ccccc34)CC2)cc1)C(=O)O

inhibition [1]: 33.3%
SMILES: O=C(O)c1ccc(OCCN2CCN(c3nsc4ccccc34)CC2)cc1

inhibition [1]: 43.4% | concentration at 1 h [3]: 114 ng/mL | concentration at 1 h [4]: < 7.8 ng/mL
SMILES: O=C(O)CCc1ccc(OCCN2CCN(c3nsc4ccccc34)CC2)cc1

inhibition [1]: 9.53%
SMILES: O=C(O)Cc1ccc(OCCN2CCN(c3nsc4ccccc34)CC2)cc1

inhibition [1]: 92% | IC50 [2]: 0.17 nM | concentration at 1 h [3]: 901 ng/mL | concentration at 1 h [4]: < 7.8 ng/mL | remaining at 0.5 h [5]: > 99% | remaining at 0.5 h [6]: 98.5% | remaining at 0.5 h [7]: > 99% | inhibition (INH) (Cytochrome P450 1A2): 4.3% | inhibition (INH) (Cytochrome P450 2C9): 1.8% | inhibition (INH) (Cytochrome P450 2C19): < 1% | inhibition (INH) (Cytochrome P450 2D6): 31.9% | inhibition (INH) (Cytochrome P450 3A4): < 1% | inhibition [8]: 68% | inhibition [9]: 98% | inhibition [10]: 22% | inhibition [11]: 50.4% | inhibition [12]: 16% | inhibition [13]: 4% | inhibition [14]: 24%
SMILES: Cl.Cl.N[C@@H](Cc1ccc(OCCCN2CCC(c3noc4cc(F)ccc34)CC2)cc1)C(=O)O
inhibition at 10 µM (hERG): 30.9% | Activity (Mus musculus [15]): Active | Activity (Mus musculus [16]): Active | Activity (Mus musculus [17]): Active | Activity (Mus musculus [18]): Active | Activity (Mus musculus [19]): Active | Activity (Mus musculus [20]): inactive | Activity (Mus musculus [21]): Active | Activity (Mus musculus [22]): Active | Activity (Mus musculus [23]): Active | Activity (Mus musculus [24]): Active | Activity (Mus musculus [25]): Active | Activity (Mus musculus [26]): Active | Activity (Mus musculus [27]): Active | Activity (Mus musculus [28]): Active | Activity (Mus musculus [29]): Active

inhibition [1]: 53.4%
SMILES: N[C@H](Cc1ccc(OCCN2CCN(c3nsc4ccccc34)CC2)cc1)C(=O)O

inhibition [1]: 90.8% | IC50 [2]: 2.15 nM | concentration at 1 h [3]: 1230 ng/mL | concentration at 1 h [4]: < 7.8 ng/mL
SMILES: Cl.Cl.N[C@@H](Cc1ccc(OCC(O)CN2CCC(c3noc4cc(F)ccc34)CC2)cc1)C(=O)O (stereo partly drawn)

inhibition [1]: 43.2%
SMILES: N[C@@H](Cc1ccc(OCCN2CCN(c3cccc(Cl)c3Cl)CC2)cc1)C(=O)O

inhibition [1]: 74.8%
SMILES: N[C@@H](Cc1ccc(OCCN2CCC(c3noc4cc(F)ccc34)CC2)cc1)C(=O)O
